Assays:
FGFR1 tyrosine kinase = target: T1, FGFR1 tyrosine kinase (Homo sapiens, UniProt P11362, C488A/C584S/L457V); test: Inhibition of phosphorylated FGF receptor tyrosine kinase activity; type: biochemical; details: for inhibition at 1 µM: read-out: FGF % Inhib. at 1 μM
T1 construct: the cytosolic domain of FGFR1 tyrosine kinase (amino acids 456–766); made in house; host or cells: Sf9 insect cells (baculovirus)
Description: Inhibition of Phosphorylated FGF Receptor and LCK Tyrosine Kinase Activity
Cloning, expression and purification of the cytosolic domain of FGFR1 tyrosine kinase (amino acids 456–766) containing three amino acid substitutions (L457V, C488A, and C584S) were conducted as previously described (Mohammadi, M., Schlessinger, J., & Hubbard, S. R. (1996) Cell 86, 577–587). This domain was expressed in Sf9 insect cells using a baculovirus expression vector, and protein was purified using conventional techniques. The LCK tyrosine kinase was expressed in insect cells as an N-terminal deletion starting from amino acid 223 to the end of the protein at amino acid 509. The N-terminus of the protein also had two amino acid substitutions, P223M and C 224D. Kinases were purified using conventional chromatographic methods.
Tyrosine kinase activity was measured using a coupled, continuous spectrophotometric assay, in which production of phosphorylated poly(Glu, Tyr; 4:1) substrate and ADP is coupled to the pyruvate kinase-catalyzed transfer of a phosphate from phosphoenolpyruvate to ADP, with generation of pyruvate and regeneration of ATP. Pyruvate production is in turn coupled to the lactate dehydrogenase-catalyzed reduction of pyruvate to form lactate, with concomitant conversion of NADH to NAD+. Loss of NADH is monitored by measuring absorbance at 340 nm (see e.g., Technikova-Dobrova et al., “Spectrophotometric determination of functional characteristics of protein kinases with coupled enzymatic assay,” FEBS Letters, vol. 292 (1991), pp. 69–72). Enzyme activity was measured in the presence of 200 mM HEPES (pH 7.5), 2 mM phosphoenolpyruvate, 0.3 mM NADH, 20 mM MgCl2, 100 μM ATP, 5 mM DTT, 5.1 or 25 mM poly (Glu,Tyr) 4:1 for P-FGF or P-LCK assays, respectively, and 15 units/mL each of pyruvate kinase and lactate dehydrogenase. Phosphorylated FGF receptor kinase was present at 100 nM and phosphorylated LCK kinase was present at 50 nM. Assays were performed under initial rate conditions at 37° C., and rates were corrected for any background rate measured in the absence of enzyme. Percent inhibition was calculated relative to control enzyme assayed in the presence of 2% (v/v) DMSO.

CDK2/cyclin A = target: T2, CDK2/cyclin A (Homo sapiens, UniProt P24941); test: Inhibition of CDK2/Cyclin A Retinoblastoma Kinase Activity; type: biochemical; details: apparent Ki
T2 construct: made in house; host or cells: CDK2: insect cells (baculovirus); cyclin A: E. coli
Description: (§1) Cyclin-dependent kinase activity was measured by quantifying the enzyme-catalyzed, time-dependent incorporation of radioactive phosphate from [^32P]ATP or [^33P]ATP into a protein substrate. Unless noted otherwise, assays were performed in 96-well plates in a total volume of 50 μL, in the presence of 10 mM HEPES (N-[2-hydroxyethyl]piperazine-N′-[2-ethanesulfonic acid]) (pH 7.4), 10 mM MgCl2, 25 μM adenosine triphosphate (ATP), 1 mg/mL ovalbumin, 5 μg/mL leupeptin, 1 mM dithiothreitol, 10 mM beta-glycerophosphate, 0.1 mM sodium vanadate, 1 mM sodium fluoride, 2.5 mM ethylene glycol-bis(β-aminoethyl ethKer)-N,N,N′N′-tetraacetic acid (EGTA), 2% (v/v) dimethylsulfoxide, and 0.03–0.4 μCi [^32/33P]ATP per reaction. Reactions were initiated with appropriate enzyme, incubated at 30° C., and terminated after 20 minutes by the addition of ethylenediaminetetraacetic acid (EDTA) to 250 mM. The phosphorylated substrate was then captured on a nitrocellulose or phosphocellulose membrane using a 96-well filtration manifold, and unincorporated radioactivity was removed by repeated washing with 0.85% phosphoric acid. Radioactivity was quantified by exposing the dried membranes to a phosphorimager.
(§2) Apparent Ki values were measured by assaying enzyme activity in the presence of different inhibitor compound concentrations and subtracting the background radioactivity measured in the absence of enzyme. Inhibition data were fit to an equation for competitive inhibition using Kaleidagraph (Synergy Software), or were fit to an equation for competitive tight-binding inhibition using the software KineTic (BioKin, Ltd.).
Inhibition of CDK2/Cyclin A Retinoblastoma Kinase Activity
CDK2 was purified using published methodology (Rosenblatt et al., “Purification and Crystallization of Human Cyclin-dependent Kinase 2,” J. Mol. Biol., vol. 230, 1993, pp. 1317–1319) from insect cells that had been infected with a baculovirus expression vector. […] A complex of CDK2 and proteolyzed cyclin A was prepared and purified by gel filtration. The substrate for this assay was the same Rb substrate fragment used for the CDK4 assays, and the methodology of the CDK2/cyclin A and the CDK4/cyclin D3 assays was essentially the same, except that CDK2 was present at 150 nM or 5 nM. Ki values were measured as described above.

HCT 116 cell line = test: Inhibition of Cell Growth (MTT tetrazolium salt assay); type: cell-based; details: Homo sapiens, HCT 116, MTT; for IC50: 50% inhibition of growth, read-out: HCT 116 IC50; for IC90: read-out: HCT 116 IC90
Description: Inhibition of Cell Growth: Assessment of Cytotoxicity
Inhibition of cell growth was measured using the tetrazolium salt assay, which is based on the ability of viable cells to reduce 3-(4,5-dimethylthiazol-2-yl)-2,5-[2H]-diphenyltetrazolium bromide (MTT) to formazan (Mossman, Journal of Immunological Methods, vol. 65 (1983), pp. 55–58). The water-insoluble purple formazan product was then detected spectrophotometrically. The HCT 116 cell line was grown in 96-well plates. Cells were plated in the appropriate medium at a volume of 135 μl/well in McCoy's 5A Medium. Plates were incubated for four hours before addition of inhibitor compounds. Different concentrations of inhibitor compounds were added in 0.5% (v/v) dimethylsulfoxide (15 μL/well), and cells were incubated at 37° C. (5% CO2) for four to six days (depending on cell type). At the end of the incubation, MTT was added to a final concentration of 0.2 mg/mL, and cells were incubated for 4 hours more at 37° C. After centrifugation of the plates and removal of medium, the absorbance of the formazan (solubilized in dimethylsulfoxide) was measured at 540 nm. The concentration of inhibitor compound causing 50% inhibition of growth was determined from the linear portion of a semi-log plot of inhibitor concentration versus percentage inhibition. All results were compared to control cells treated only with 0.5% (v/v) dimethylsulfoxide.

CDK4/cyclin D3 = CDK4/cyclin D3 (Homo sapiens, UniProt P11802); test: Inhibition of CDK4/Cyclin D Retinoblastoma Kinase Activity; type: biochemical; details: apparent Ki
Description: as §1, §2
Inhibition of CDK4/Cyclin D Retinoblastoma Kinase Activity
A complex of human CDK4 and cyclin D3, or a complex of human CDK4 and genetically truncated (1–264) cyclin D3, was purified using traditional biochemical chromatographic techniques from insect cells that had been co-infected with the corresponding baculovirus expression vectors (see e.g., Meijer and Kim, “Chemical Inhibitors of Cyclin-Dependent Kinases,” Methods in Enzymol,. vol. 283 (1997), pp. 113–128.). The enzyme complex (5 or 50 nM) was assayed with 0.3–0.5 μg of purified recombinant retinoblastoma protein fragment (Rb) as a substrate. The engineered Rb fragment (residues 386–928 of the native retinoblastoma protein; 62.3 kDa) contains the majority of the phosphorylation sites found in the native 106-kDa protein, as well as a tag of six histidine residues for ease of purification. Phosphorylated Rb substrate was captured by microfiltration on a nitrocellulose membrane and quantified using a phosphorimager as described above. For measurement of tight-binding inhibitors, the enzyme complex concentration was lowered to 5 nM, and the assay duration was extended to 60 minutes, during which the time-dependence of product formation was linear.

Sequence of CDK4/cyclin D3 (P11802 2-303 limits assumed): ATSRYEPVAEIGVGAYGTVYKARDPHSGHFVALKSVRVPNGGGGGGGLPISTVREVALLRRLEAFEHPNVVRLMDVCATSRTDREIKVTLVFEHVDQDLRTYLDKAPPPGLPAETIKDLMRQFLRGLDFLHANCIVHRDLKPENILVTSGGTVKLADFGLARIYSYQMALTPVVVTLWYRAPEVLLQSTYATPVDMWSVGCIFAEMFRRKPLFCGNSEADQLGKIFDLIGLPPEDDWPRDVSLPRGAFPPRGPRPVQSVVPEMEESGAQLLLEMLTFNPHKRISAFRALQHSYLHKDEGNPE
Sequence of CDK4/cyclin D3 (P30281 1-264 limits assumed, further chain): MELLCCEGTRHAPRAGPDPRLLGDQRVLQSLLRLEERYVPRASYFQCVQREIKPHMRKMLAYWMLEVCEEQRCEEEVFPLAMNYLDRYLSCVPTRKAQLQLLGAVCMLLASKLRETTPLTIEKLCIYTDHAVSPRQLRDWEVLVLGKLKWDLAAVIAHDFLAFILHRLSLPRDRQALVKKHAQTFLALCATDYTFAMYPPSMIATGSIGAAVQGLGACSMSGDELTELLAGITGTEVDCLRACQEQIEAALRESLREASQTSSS
T1 sequence (P11362 456-766 L457V/C488A/C584S): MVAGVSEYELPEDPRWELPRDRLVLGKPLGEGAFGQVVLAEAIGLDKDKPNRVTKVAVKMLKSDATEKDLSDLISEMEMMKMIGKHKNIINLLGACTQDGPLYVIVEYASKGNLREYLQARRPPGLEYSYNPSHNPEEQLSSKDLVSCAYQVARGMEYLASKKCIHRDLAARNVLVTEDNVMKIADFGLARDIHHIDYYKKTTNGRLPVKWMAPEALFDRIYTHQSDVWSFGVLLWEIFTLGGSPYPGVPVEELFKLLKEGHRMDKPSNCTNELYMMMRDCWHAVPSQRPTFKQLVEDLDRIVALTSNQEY

Row | Structure (SMILES) | inhibition at 1 µM (FGFR1 tyrosine kinase) [%] | Ki (CDK2/cyclin A) [µM] | IC50 (HCT 116 cell line) [µM] | IC90 (HCT 116 cell line) [µM] | Ki (CDK4/cyclin D3) [µM] | Ki (FGFR1 tyrosine kinase) [µM]
1 | C(=C\c1n[nH]c2ccc(-c3ccc4ccncc4c3)cc12)/c1ccccc1 [Example 24, 7-[3-((E)Styryl)-1H-indazol-5-yl]-isoquinoline] | 45.4 | 1.1 |  |  | 0.69 | 
2 | Cc1c(-c2ccc3[nH]nc(/C=C/c4ccccc4)c3c2)ccc(CCCO)c1O [Example 22, 6-(3-Hydroxy-propyl)-2-methyl-3-[3-((E)-styryl)-1H-indazol-5-yl]-phenol] | 93.5 | 0.094 | 5 | 5 | 0.015 | 
3 | Oc1ccc(F)c(-c2ccc3[nH]nc(-c4nc5ccccc5[nH]4)c3c2)c1F [Example 49, 3-[-3-(1H-Benzoimidazol-2-yl)-1H-indazol-5-yl]-2,4-difluoro-phenol] | 86.7 | 0.049 | 2.3 | 4.8 | 0.095 | 
4 | Fc1cccc2cncc(-c3ccc4[nH]nc(/C=C/c5ccccc5)c4c3)c12 [Example 44] | 56.2 | 0.029 | 5 | 5 | 0.019 | 
5 | Cc1c(O)cccc1-c1ccc2[nH]nc(-c3nc4c(CO)cccc4[nH]3)c2c1 [Example 23, 3-[3-(4Hydroxymethyl-1H-benzoimidazol-2-yl)-1H-indazol-5-yl]-2-methyl-phenol] |  | 0.041 | 4 | 5 | 0.065 | 0.8
6 | COc1c(O)cccc1-c1ccc2[nH]nc(-c3nc4ccccc4[nH]3)c2c1 [Example 47, 3-[3-(1H-benzoimidazol-2-yl)-1H-indazol-5-yl]-2-methoxy-phenol] | 81.1 | 0.1 | 2.1 | 5 | 0.094 | 

Stronger by Ki (CDK2/cyclin A), values ahead:

Row | inhibition at 1 µM (FGFR1 tyrosine kinase) [%] | Ki (CDK2/cyclin A) [µM] | IC50 (HCT 116 cell line) [µM] | IC90 (HCT 116 cell line) [µM] | Ki (CDK4/cyclin D3) [µM] | Ki (FGFR1 tyrosine kinase) [µM] | Structure (SMILES)
7 | 40.5 | 0.001 | 0.13 | 0.37 | 0.0032 |  | CC(CO)CNCc1cccc2[nH]c(-c3n[nH]c4ccc(-c5cncc6ccccc56)cc34)nc12 (stereo not shown) [Example 35, 3-{[2-(5-Isoquinolin-4-yl-1H-indazol-3-yl)-1H-benzoimidazol-4-ylmethyl]-amino}-2-methyl-propan-1-ol]
8 | 44.1 | 0.001 | 0.39 | 1.3 | 0.0028 |  | Cc1c(-c2ccc3[nH]nc(-c4nc5ccccc5[nH]4)c3c2)cncc1-c1c[nH]cn1 [Example 65, 3-(1H-Benzoimidazol-2-yl)-5-[5-(1H-imidazol-4-yl)-4-methyl-pyridin-3-yl]-1H-indazole]
9 | 31.3 | 0.001 | 0.78 | 1.6 | 0.054 |  | Clc1cccc2[nH]c(-c3n[nH]c4ccc(-c5cncc6ccccc56)cc34)nc12 [Example 19, 4-[3-(4-Chloro-1H-benzoimidazol-2-yl)-1H-indazol-5-yl]-isoquinoline]
10 | 26.9 | 0.001 | 0.2 | 0.58 | 0.019 |  | c1ccc2c(-c3ccc4[nH]nc(-c5nc6c(CCN7CCCC7)cccc6[nH]5)c4c3)cncc2c1 [Example 34, 4-{3-[4-(2-Pyrrolidin-1-yl-ethyl)-1H-benzoimidazol-2-yl]-1H-indazol-5-yl]-isoquinoline]
11 | 51.6 | 0.001 | 0.055 | 0.16 | 0.0011 |  | c1ccc2c(-c3ccc4[nH]nc(-c5nc6c(CN7CCCC7)cccc6[nH]5)c4c3)cncc2c1 [Example 33, 4-[3-(4Pyrrolidin-1-ylmethyl-1H-benzoimidazol-2-yl)-1H-indazol-5-yl]-isoquinoline]
12 |  | 0.001 | 0.33 | 1.1 | 0.01 | 0.44 | c1ccc2c(-c3ccc4[nH]nc(-c5nc6ccccc6[nH]5)c4c3)cncc2c1 [Example 25, 4-[3-(1H-Benzoimidazol-2-yl)-1H-indazol-5-yl]-isoquinoline]
13 | 52.4 | 0.001 | 0.18 | 0.62 | 0.011 |  | OCCc1cccc2[nH]c(-c3n[nH]c4ccc(-c5cncc6ccccc56)cc34)nc12 [Example 30]
14 | 96.9 | 0.00093 | 0.07 | 0.4 | 0.0021 |  | CN1CCN(c2ccc3[nH]c(-c4n[nH]c5ccc(-c6cncc7ccccc67)cc45)nc3c2)CC1 [Example 20, 4-{3-[5-(4-Methyl-piperazin-1-yl)-1H-benzoimidazol-2-yl]-1H-indazol-5-yl}-isoquinoline]
15 | 29.7 | 0.00025 | 0.086 | 0.23 | 0.00041 |  | CNCc1cccc2[nH]c(-c3n[nH]c4ccc(-c5cncc6ccccc56)cc34)nc12 [Example 32, [2-(5-Isoquinolin-4-yl-1H-indazol-3-yl)-1H-benzoimidazol-4-yl-methyl]-methyl-amine]
